{"source": "ChEMBL document CHEMBL1141550", "about": "“N-Alkylated galanthamine derivatives: Potent acetylcholinesterase inhibitors from Leucojum aestivum” (Bioorg Med Chem Lett, 2008)", "target": "Acetylcholinesterase (Electrophorus electricus, UniProt O42275)", "sequence (O42275 whole entry)": "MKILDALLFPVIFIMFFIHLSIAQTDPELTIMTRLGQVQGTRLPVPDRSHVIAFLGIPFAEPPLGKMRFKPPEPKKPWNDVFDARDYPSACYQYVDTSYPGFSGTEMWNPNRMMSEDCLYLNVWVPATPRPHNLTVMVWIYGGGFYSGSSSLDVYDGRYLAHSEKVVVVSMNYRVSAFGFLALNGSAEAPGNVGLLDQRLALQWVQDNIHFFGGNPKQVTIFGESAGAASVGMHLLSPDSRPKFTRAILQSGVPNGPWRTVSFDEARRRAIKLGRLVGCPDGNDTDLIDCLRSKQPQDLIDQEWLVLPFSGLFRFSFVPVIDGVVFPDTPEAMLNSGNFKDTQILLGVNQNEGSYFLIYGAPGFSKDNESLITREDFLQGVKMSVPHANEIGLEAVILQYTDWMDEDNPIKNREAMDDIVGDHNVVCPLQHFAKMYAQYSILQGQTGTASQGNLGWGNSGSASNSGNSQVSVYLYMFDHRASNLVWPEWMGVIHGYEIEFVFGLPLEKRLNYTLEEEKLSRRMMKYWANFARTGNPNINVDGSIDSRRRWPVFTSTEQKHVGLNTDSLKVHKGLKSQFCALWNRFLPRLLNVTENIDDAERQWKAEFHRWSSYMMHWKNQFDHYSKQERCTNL", "assay": "Inhibition of electric eel acetylcholinesterase", "data": [{"compound": "C=C(C)CN1CC[C@@]23C=C[C@H](O)C[C@@H]2Oc2c(OC)ccc(c23)C1", "values": [{"measurement": "IC50", "result": 0.16, "unit": "µM"}]}, {"compound": "C=CCN1CC[C@@]23C=C[C@H](O)C[C@@H]2Oc2c(OC)ccc(c23)C1", "note": "[N-ALLYLNORGALANTHAMINE]", "values": [{"measurement": "IC50", "result": 0.18, "unit": "µM"}]}]}
